# Several values for one entry are separate records, joined by “and”; a condition that tells them apart may be missing. Equal values may be shown once.
# Experiments:
# mouse 11β-hsd1 = molecular target: T1, mouse 11β-hsd1 (Mus musculus, UniProt P50172); test: Conversion of 7k27OHC by mouse 11β-hsd1 (data not shown)
# T1 construct: expressed in transfected cells; host or cells: HEK-293
# 11β-HSD2 = molecular target: T2, 11β-HSD2 (Homo sapiens, UniProt P80365); test: 11β-HSD2-dependent metabolism of 7-oxygenated 27OHCs in intact HEK-293 cells expressing 11β-HSD2; format: cell-based; details: for Metabolism by 11β-HSD2 in intact cells (in words): 500 nM substrate, 30 min
# T2 construct: expressed in transfected cells
# T2 sequence (P80365 1-405): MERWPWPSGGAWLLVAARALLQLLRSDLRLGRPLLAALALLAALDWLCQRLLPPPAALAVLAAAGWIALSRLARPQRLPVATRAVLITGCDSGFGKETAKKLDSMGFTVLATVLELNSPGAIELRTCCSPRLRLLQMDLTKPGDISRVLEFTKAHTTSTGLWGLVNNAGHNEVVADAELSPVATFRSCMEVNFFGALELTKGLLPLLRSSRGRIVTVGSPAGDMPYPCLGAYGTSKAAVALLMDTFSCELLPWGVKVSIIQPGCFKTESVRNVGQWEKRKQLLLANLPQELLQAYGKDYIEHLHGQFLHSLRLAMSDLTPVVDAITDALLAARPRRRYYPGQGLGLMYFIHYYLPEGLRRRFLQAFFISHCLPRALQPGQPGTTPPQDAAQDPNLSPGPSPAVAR
# Procedure: Fifty thousand stably transfected HEK-293 cells expressing either 11β-HSD2 [clone AT8 ([34])] or 11β-HSD1 and hexose-6-phosphate dehydrogenase (H6PDH) [clone HHH7 ([35])] were seeded in poly-L-lysine-coated 96-well plates and incubated for 24 h. H6PDH provides the cofactor NADPH and is required for an efficient oxoreduction reaction by 11β-HSD1 ([36]). The medium was changed to steroid- and phenol red-free DMEM (DMEM SF) for another 2 h and the cells were then treated with 1 μM of 7k27OHC in the presence or absence of 1 μM of T0504 (to inhibit 11β-HSD1) or 0.5 μM of 7β27OHC or 7α27OHC in the presence or absence of 5 μM of glycyrrhetinic acid (GA) (to inhibit 11β-HSD2). Metabolic conversion was determined after 0.5 h for 11β-HSD2 and after 1 h for 11β-HSD1.
# Ice-cold acetonitrile:isopropanol (7:3, v/v) mixture containing either 100 nM deuterium-labeled 7β27OHC or corticosterone as internal standards were used to extract oxysterols from cell culture supernatants. Additionally, 1.5% (v/v) of a standard solution of the antioxidant butylated hydroxytoluene (BHT) and the peroxide reducing agent triphenylphosphine (TPP) (10 mg BHT and 25 mg TPP in 10 ml ethanol) was added ([37]). In experiments with SW-620 cells, oxysterols were extracted from cell supernatants and cells. The samples were incubated for 30 min at 4°C and 700 rotations per minute, centrifuged (16,000 g, 10 min, 4°C), and the supernatant evaporated to dryness under nitrogen to minimize oxidation from atmospheric oxygen. After reconstitution in 50 μl of methanol:ultra-pure water (1:1, v/v), the samples were again centrifuged (16,000 g, 10 min, 4°C) and the supernatants analyzed. Data (mean ± SD) were obtained from three independent experiments.
# An Agilent 1290 Infinity UHPLC binary solvent delivery system including a temperature controlled autosampler and a column oven coupled to an Agilent 6490 triple quadrupole mass spectrometer with a jet stream electrospray ionization interface (AJS-ESI) (Agilent Technologies) was used to analyze oxysterols. […]
# T1 sequence (P50172 whole entry): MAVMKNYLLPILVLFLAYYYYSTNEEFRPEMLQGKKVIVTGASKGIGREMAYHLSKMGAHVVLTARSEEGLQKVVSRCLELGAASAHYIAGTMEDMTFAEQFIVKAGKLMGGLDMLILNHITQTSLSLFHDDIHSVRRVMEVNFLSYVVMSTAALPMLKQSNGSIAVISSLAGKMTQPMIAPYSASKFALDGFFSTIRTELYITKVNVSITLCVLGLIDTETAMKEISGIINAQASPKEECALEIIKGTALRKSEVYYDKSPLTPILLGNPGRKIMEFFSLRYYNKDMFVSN
SMILES,Conversion by mouse 11β-hsd1 (in words) (mouse 11β-hsd1),Metabolism by 11β-HSD2 in intact cells (in words) (11β-HSD2),"Vapp cell intact (11β-HSD2; intact HEK-293 cells, substrate concentration 500 nM)"
"CC(CO)CCC[C@@H](C)[C@H]1CC[C@H]2[C@@H]3C(=O)C=C4C[C@@H](O)CC[C@]4(C)[C@H]3CC[C@]12C (stereo partly shown) [7k27OHC, 7-keto,27-hydroxycholesterol]",exclusive conversion of 7k27OHC to 7β27OHC without the formation 7α27OHC,–,–
C[C@@H](CO)CCC[C@@H](C)[C@H]1CC[C@H]2[C@@H]3[C@H](O)C=C4C[C@@H](O)CC[C@]4(C)[C@H]3CC[C@]12C [7α27OHC],–,lack of 7α27OHC metabolism,–
"CC(CO)CCC[C@@H](C)[C@H]1CC[C@H]2[C@@H]3[C@@H](O)C=C4C[C@@H](O)CC[C@]4(C)[C@H]3CC[C@]12C (stereo partly drawn) [7β27OHC, 7β,27-dihydroxycholesterol]",–,exclusive oxidation of 7β27OHC to 7k27OHC,0.6 ± 0.1 nmol·h^−1·mg total protein^−1 and 0.6 ± 0.1^b nmol·h^−1·mg total protein^−1
